The inhibition is the drop in the measured response relative to a control, in per cent. A low value points to a response near the control.

SMILES strings stand for the structures.

This is an account of results in patent US8138191B2, “Inhibitor compounds and cancer treatment methods” (Critical Outcome Technologies Inc., priority 2007, dated 2012).

The subject of series [1] is DMS114 and SHP77 cell lines. Kind of series: Microarray differential gene expression analysis. It is filed as cell-based, human. The following applies: 150 or 300 nM, 6 h. The method, then:
For each cell line, four sets of microarray experiments were performed, with each set consisting of control and treated cells exposed for 6 h either to DMSO or COTI-2 at 150 or 300 nM total concentration. Total RNA was prepared with RNeasy (Qiagen) and converted to Cy3 or Cy5-labelled cRNA according to procedures provided with the linear amplification kit from Agilent Technologies. Two hundred […] of labeled cRNA were hybridized to 4×44K Agilent whole genome microarrays, the arrays were washed, scanned and relevant features were extracted according to the manufacturer's protocol and further analyzed as described by Wolber et al. (Methods in Enzymology 410:28-57), which is incorporated herein by reference in its entirety.
Cy5 and Cy3 features were extracted and normalized by median centering the expression values relative to the median value of the 8 hybridization experiments performed on each microarray slide. […] Statistically significant changes in gene expression between treatment and control groups were determined by SAM analysis using TIGR software from The Institute of Genomic Research or by t tests with false discovery correction. Only genes that were differentially expressed in all 4 biologically-independent groups were further analyzed. […] The intersection of common genes was determined using GeneVenn (http://mcbc.usm.edu/qenevenn/genevenn.htm).

Series [2] has as its system A549, H460, DMS114 and SHP77 cells. Put plainly: Western blot of total mTOR, mTOR phospho-Ser2448/Ser2481 and Akt phospho-Thr308. It counts as cell-based, human. The conditions noted are these: 4 h. (In general: In western blotting, separated proteins are transferred to a membrane and probed.)
Series [3] deals with AKT1, AKT2, AKT3 expression in a panel of cell lines. Kind of series: Correlation between AKT isoform expression and COTI-2 IC50 in a panel of cell lines. It counts as cell-based, human. The following applies: corrected for total AKT expression. The text has this:
Cell cultures were maintained under regular tissue culture conditions and passaged 1-2 times a week as recommended by ATCC. For siRNA experiments the manufacturer's conditions for growth and transfection were followed. All siRNA reagents for AKT and AKT2 transfections were obtained from Cell Signaling.
Routine laboratory methods were employed for the production of cellular lysates, protein quantification, SDS-PAGE and western blotting. All antibodies were obtained from Cell Signaling and Abcam. To determine total AKT & AKT2 in DMS114 cells, 5×10^4 cells were incubated for 48 h with 10-100 ng of AKT2 siRNA or a scrambled control oligonucleotide. Cells were lysed and 50 μg of protein was separated by SDS-PAGE and blotted with antibody to total AKT or AKT2.
The expression of AKT1, AKT2, AKT3, total AKT and β-actin were examined in a panel of cell lines representing various types of cancers, with the aim of determining if a correlation exists with the pre-determined IC50's for these cell lines. […] The down-regulation of AKT2 prior to the addition of COTI-2 was confirmed with western blotting in DMS114 cell lines using an antibody to AKT2 (FIG. 35).

A short description of a further series: in vitro. The conditions noted are these: mixed breeds, rat. It is filed as in vitro ADME.
The subject of another series is rat plasma. Put plainly: in vitro. It is filed as in vitro ADME. The following applies: mixed breeds, 10 µM.
A short description of series [4]: Metabolic Stability (liver microsomes, dog, Beagle). The following applies: 1.0E−06 M, 60 min. It is filed as in vitro ADME. The method, then:
Metabolic stability was determined in human (mixed gender and pool of 50) monkey (male Cynomolgus, pool of 6 or more), dog male, beagle, pool of 4 or more) and rat (male Sprague-Dawley, pool of 100 or more) liver microsomes. […] Four reference substrates (1 μM) were tested simultaneously with COTI-2. […] Peak areas corresponding to COTI-2 were recorded by HPLC-MS/MS. Metabolic stability, expressed as percent of COTI-2 remaining, was calculated by comparing the peak area of COTI-2 at 60 min to time zero.

Series [5] in a line: In vivo pharmacokinetics in rats, IV dosing. The following applies: IV. The text has this: Pharmacokinetic studies in animal models provide valuable information that enables prediction of metabolism in humans. There are a large variety of animal models that allow for the pharmacokinetic evaluation of compounds by providing information on serum, plasma, and tissue levels. […] As a result, it is important to keep this phenomenon in mind during extrapolations from animal to human metabolism. An initial pharmacokinetic assessment of COTI-2, administered both intravenously and orally, in its parent formulation and as both an oxalate and tartrate salt were evaluated in rats.
A single oral or IV dose of the COTI-2 free-base or the aforementioned salt forms was administered to groups of male and female rats and blood samples collected and processed at several time-points post-treatment.

In the next series the target is CYP2C9 (Homo sapiens, UniProt P11712). Kind of series: in vitro. The following applies: both.
In series [6] the test system is Akt kinase activity in DMS-114 cells. Kind of series: Akt kinase activity (immunoprecipitated Akt, GSK-3 phosphorylation), DMS-114. The following applies: DMS-114, 250 nM, 8 hrs.

Chain of CYP2C9 (P11712 whole entry): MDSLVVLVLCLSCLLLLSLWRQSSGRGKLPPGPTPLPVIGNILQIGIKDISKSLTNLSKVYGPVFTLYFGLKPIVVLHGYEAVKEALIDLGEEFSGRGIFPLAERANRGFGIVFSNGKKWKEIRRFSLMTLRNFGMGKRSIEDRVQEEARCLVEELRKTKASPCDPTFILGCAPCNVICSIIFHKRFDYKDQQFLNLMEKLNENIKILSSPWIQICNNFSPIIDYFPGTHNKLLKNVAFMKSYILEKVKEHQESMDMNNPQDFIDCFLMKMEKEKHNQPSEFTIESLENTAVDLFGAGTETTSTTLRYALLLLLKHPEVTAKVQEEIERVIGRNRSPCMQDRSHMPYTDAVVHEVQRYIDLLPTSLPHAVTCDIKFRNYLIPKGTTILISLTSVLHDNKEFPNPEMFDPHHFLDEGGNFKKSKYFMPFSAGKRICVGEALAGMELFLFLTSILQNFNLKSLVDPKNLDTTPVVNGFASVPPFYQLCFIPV

`S=C(N/N=C1/CCCc2cccnc21)N1CCN(c2ccccn2)CC1` [COTI-2]: in series [1], the AKT gene expression entry is reported as “down-regulated” and the “Rictor (mTOR-Rictor) expression” value is listed as “down-regulation of Rictor”. Further, the “PKB/Akt phospho-Thr308 levels” value in series [2] (A549 cells) is reported as “decreased”. In addition, the “mTOR phospho-Ser2448 level” value in [2] (SHP77 cells) is “reduced”. Moreover, in series [3], the “correlation of AKT2 expression with COTI-2 IC50” value is “inversely correlated”. In the series “in vitro” (% Recovery 1st), the recovery at 10 µM came to 16.4%. Further, the recovery at 10 µM in the series “in vitro” (% Recovery 2nd) was determined as 25.1%. In “in vitro” (% Recovery Mean), this molecule had a recovery at 10 µM of 20.7%. Also, in “in vitro” (percent recovery), the recovery at 10 µM was less than 50%. Moreover, in the series with rat plasma, the “% Protein Bound 1st” value is more than 99.9%, the “% Protein Bound 2nd” value is given as more than 99.9%, the “% Protein Bound Mean” value was more than 99.9% and the percent protein bound is more than 99%. In [4], the “Mean Parent Remaining” value is given as 5%. Further, in series [5], the “clearance (CL) from plasma, fold higher than the oxalate formulation” value is on record as “approximately 1.4 fold” and the “clearance (CL) from plasma, fold higher than the tartrate formulation” value is on record as approximately 2.3 fold. The molecule also returned an inhibition at 15 min, 10 µM at CYP2C9 (human liver microsomes, pH 7.4, probe diclofenac (10 µM)) of 2%. The same molecule yielded an inhibition at 15 min, 10 µM at CYP2C9 (liver microsomes, pH 7.4, probe diclofenac) of less than 50%. For the same molecule, the Akt kinase activity result in series [6] is on record as “below the threshold for measurement”.
